Test results from patent publication US9873693B2 (Sunesis Pharmaceuticals, Inc., priority 2006, dated 2018).
Like-named read-outs stand apart in the source and are kept apart here.

Experiments:
[1] = target: full-length PDK1 (Homo sapiens (Human), UniProt O15530); test: PDK phosphorylation of AKT and PKC-PIFtide in presence of PIP3 vesicles; type: biochemical; details: substrates PKC-PIFtide vs AKT2
Protocol: PDK phosphorylation of two different substrates, AKT and PKC-PIFtide, was measured in presence of pre-formed phophoinositol lipid PIP3 vesicles. 5 nM full-length PDK1 and was incubated with 100 nM substrate (unphosphorylated, full-length AKT2 or PKC-PIFtide, Invitrogen cat#P2925) in presence of test compound or DMSO at room temperature for 3 hours. Final buffer conditions were 10 mM Tris pH 7.5 buffer containing 10 mM MgCl2, 0.002% Triton X-100, 1 mM DTT, 0.2 mg/ml BSA, 10 uM PtdIns(3,4,5)P3 (Matreya, Inc), 100 uM DOPC:DOPS (Avanti Polar Lipids), and 0.5 uCi γ^33P-ATP (3000 Ci/mmol, Perkin-Elmer.)
Kinase reactions were stopped with addition of 50 uM non-labelled ATP and 5 mM EDTA, then acidified with 0.5% final concentration phosphoric acid. Labeled proteins were collected in Whatman P81 filter plates and washed with three 150 ul volumes of 0.5% phosphoric acid.
Lipid vesicles were pre-formed as follows. 15 mg (3 ampules) DOPC:DOPS was resuspended in 898 ul 10 mM HEPES pH 7.4. 1 mg PIP3 was resuspended in 1000 ul 10 mM HEPES pH 7.4. 964 ul of PIP3 was mixed with 800 ul DOPC:DOPS and diluted with 18.2 ml 10 mM HEPES pH 7.4 and mixed by vortexing. The lipid mixture was subjected to 5 cycles of freeze/thaw using liquid nitrogen and a 50° C. water bath. Aliquot of lipids were flash frozen and stored at −20° C.

[2] = target: phosphorylated PDK1 (Homo sapiens (Human), UniProt O15530); test: PDK1 kinase assay (coupled PDK1/AKT/FAM-crosstide, IMAP); type: biochemical; details: 0.5 nM phosphorylated PDK1, 24 μM ATP; read-out: Inhibition of phospo-PDK1 in vitro IC50
[3] = target: dephosphorylated PDK1 (Homo sapiens (Human), UniProt O15530); test: as above; type: biochemical; details: 25 nM un-phosphorylated PDK1, 24 μM ATP; read-out: Inhibition of dephospo-PDK1 in vitro IC50
Procedure, shortened: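 The FAM-crosstide phosphorylation readout was IMAP polarization (ex 485/em 530 nm, 2 h binding), with 4-parameter fits of ΔmP data. The reaction ran 30 min at 25 °C with 24 μM ATP, and contained 25 nM phosphatase-treated PDK1 (aa 51–360) plus 30 nM unphosphorylated AKT2-PIFtide and 100 nM substrate. Buffer was 10 mM Tris pH 7.2, 10 mM MgCl2, 0.01% Triton X-100 and 1 mM DTT.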

[4] = system: phospho-akt (Thr308); test: phospho-akt (Thr308) MSD ELISA in PC-3 cells; type: cell-based; details: Homo sapiens, PC-3 cells; for EC50: PC-3, 2 h, 2 hours, no serum; for inhibition at 1 µM / inhibition at 10 µM: read-out: Percent Inhibition of phospho-Akt (308) By MSD ELISA
Procedure, shortened: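 Read-out is MSD electrochemiluminescence after lysate capture overnight at 4 degrees and 1 hr RT detection-antibody step. Before lysis, overnight-plated PC-3 cells received three-fold serial dilutions of inhibitor in serum-free medium, with DMSO-only high controls.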

[5] = system: Phospho-T308 Akt; test: Phospho-T308 Akt detection using immunoblot (western blot) in PC-3 cells; type: cell-based; details: for Reduction of Cellular Levels of Akt p308 By Western: 2 hour incubation, concentration not given in Table 2; for inhibition at 5 µM / inhibition at 2 µM: Homo sapiens, read-out: Percent Inhibition of phospho-Akt (308) By Western
Protocol: A Phospho-T308 Akt detection using immunoblot (western blot) analysis was performed as described below.
PC-3 prostate cells were plated in a 6 well plate in F12K media (Invitrogen, Carlsbad, Calif.) plus 10% FBS (Invitrogen) and placed in incubator overnight. The stock of compound A was a 50 mM solution in DMSO. 1000× dilutions of the compound were made in DMSO. The 1000× dilutions include, 35 mM, 25 mM, 15 mM, 10 mM, 7 mM, 5 mM, and 1 mM. 1 μl of the 1000× dilutions was added to 1 ml F12K media without serum for final concentrations of […]. 1 μl of DMSO was added to 1 ml media with no serum for a control. The 1 ml DMSO or compound plus media was then added to the cells. Following a 2 hour incubation at 37° C., cells were harvested and washed in PBS and subjected to centrifugation at 3,300 rpm for 5 minutes. Cells were lysed in 100 μl of Bio Rad Bioplex buffer containing protease inhibitors (BioRad, Hercules, Calif.) for 30 minutes on ice followed by centrifugation at 13,000 rpm for 5 minutes. The protein content of the supernatant was assayed using DC Protein Assay (BioRad). 25 μl of protein was added to 4× sample buffer (Invitrogen) and sample reducer (Invitrogen) and run on a 4-12% NuPage gel (Invitrogen). Proteins were then transferred to nitrocellulose (Invitrogen). The membrane was blocked in Tris-buffered saline (Sigma, St. Louis, Mo.) plus 0.1% Tween (Sigma) (T-TBS) plus 5% blotting grade milk (BioRad) for 60 minutes. Membranes were then incubated in T-TBS plus 5% BSA (Sigma) plus 1:1000 of anti-phospho akt (Thr 308) (Cell Signaling Technology, Beverly, Mass.) overnight at 4° C. Membranes were washed in T-TBS then incubated in 1:2000 of anti-rabbit-HRP (Cell Signaling) in TTBS plus 5% milk. Membranes were washed again and proteins were visualized with Super Signal West Pico (Pierce, Rockford, Ill.) and using Kodak BioMax MR film (Kodak, Rochester, N.Y.).
Phospho-akt 308 protein bands on the film were quantified using densitometry. An Alpha Imager (Alpha Innotech Corp, San Leandro, Calif.) using AlphaEase FC software version 4.1.0 (Alpha Innotech Corp.) was used to quantitate protein bands. Briefly, a rectangle of equal size was placed around each protein band as well as a background spot on the film. The densitometry values (IDV=Integrated Density Value) obtained for the background spot was then subtracted from the values obtained for the protein bands. These values were used to obtain an EC50 value using non-linear regression analysis in GraphPad Prism Version 4.00 (Graph Pad Prism, San Diego, Calif.). Percent decrease in expression of phosphoh-akt 308 were also measured specifically at 2 μM and 5 μM levels of inhibitor.

[6] = read-out: Inhibition of P308 Akt in cells using MSD EC50
[7] = read-out: Reduction of Cellular Levels of Akt p308 By MSD ELISA (EC50 μM)

Chain of dephosphorylated PDK1 (O15530 51-360): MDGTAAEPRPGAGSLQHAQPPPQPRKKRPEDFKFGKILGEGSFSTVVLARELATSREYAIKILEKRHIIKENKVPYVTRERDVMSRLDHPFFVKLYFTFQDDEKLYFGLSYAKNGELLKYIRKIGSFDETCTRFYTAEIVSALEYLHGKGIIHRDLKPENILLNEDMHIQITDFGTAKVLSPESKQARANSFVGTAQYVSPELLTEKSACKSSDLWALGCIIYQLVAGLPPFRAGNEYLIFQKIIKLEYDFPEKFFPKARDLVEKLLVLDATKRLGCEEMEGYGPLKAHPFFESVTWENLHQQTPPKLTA
Chain of phosphorylated PDK1 (O15530 51-360): as above
Chain of full-length PDK1 (O15530 whole entry): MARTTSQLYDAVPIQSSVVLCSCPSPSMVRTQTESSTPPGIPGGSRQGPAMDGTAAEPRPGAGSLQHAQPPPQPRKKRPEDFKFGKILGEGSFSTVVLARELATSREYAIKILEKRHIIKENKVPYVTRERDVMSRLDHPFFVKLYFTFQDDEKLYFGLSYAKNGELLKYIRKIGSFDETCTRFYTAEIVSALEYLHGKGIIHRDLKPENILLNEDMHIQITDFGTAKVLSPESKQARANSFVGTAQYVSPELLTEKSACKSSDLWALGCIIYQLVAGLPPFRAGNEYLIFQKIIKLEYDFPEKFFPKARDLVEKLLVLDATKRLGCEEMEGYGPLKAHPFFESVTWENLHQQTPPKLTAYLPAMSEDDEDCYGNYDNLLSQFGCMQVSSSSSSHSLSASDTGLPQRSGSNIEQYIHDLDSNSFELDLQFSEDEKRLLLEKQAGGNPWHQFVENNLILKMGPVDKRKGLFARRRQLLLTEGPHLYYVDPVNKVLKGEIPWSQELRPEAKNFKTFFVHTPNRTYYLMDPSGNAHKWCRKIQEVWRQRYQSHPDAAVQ

Row | SMILES | Ratio of PIP3 IC50 with PKCtide to PIP3 IC50 with AKT [1] | IC50 [2] | IC50 [3] | EC50 [4, 6] | EC50 [4, 7] | Reduction of Cellular Levels of Akt p308 By Western [5] | inhibition at 5 µM [5] | inhibition at 1 µM [4] | inhibition at 10 µM [4] | inhibition at 2 µM [5]
1 | O=C(NCCCCc1c[nH]c2ncccc12)c1cccn(Cc2ccc(F)c(F)c2)c1=O [Cpd 110] | 13.5 | < 0.5 µM | < 0.5 µM |  |  |  |  |  |  | 
2 | COC(=O)[C@H](COc1ccc2[nH]c(=O)[nH]c2c1)NC(=O)c1cccn(Cc2ccc(F)c(F)c2)c1=O [Cpd 135] |  | < 0.5 µM | < 0.5 µM | 1 to 5 µM | 1 to 5 µM | bbb (inhibition of more than 75%) | > 75% |  |  | 
3 | O=C(Nc1c(F)cccc1Oc1ccc2[nH]c(=O)[nH]c2c1)c1cccn(Cc2ccc(F)c(F)c2)c1=O [Cpd 133] |  | < 0.5 µM | < 0.5 µM |  |  | bbb (inhibition of more than 75%) | > 75% | < 25% | 25 to 75% | 
4 | O=C(NCc1cccc(-c2cn[nH]c2)c1)c1cccn(Cc2ccc(F)c(F)c2)c1=O [Cpd 222] |  | 0.5 to 10 µM | < 0.5 µM |  | > 5 µM | bb (inhibition of from 25% to 75%) | 25 to 75% |  |  | 
5 | O=C(NCc1noc(-c2c[nH]c3ncccc23)n1)c1cccn(Cc2cccc(F)c2)c1=O [Cpd 302] |  | < 0.5 µM | < 0.5 µM |  |  | bbb (inhibition of more than 75%) | > 75% | < 25% | 25 to 75% | 
6 | O=C(NCc1noc(-c2c[nH]c3ncccc23)n1)c1cccn(Cc2ccc(Cl)cc2)c1=O [Cpd 305] |  | < 0.5 µM | < 0.5 µM | 1 to 5 µM |  | bbb (inhibition of more than 75%) | > 75% | < 25% | > 75% | 
7 | O=C(O)C[C@@H](NC(=O)c1cccn(Cc2ccc(F)c(F)c2)c1=O)c1nnc(-c2c[nH]c3ncccc23)o1 [Cpd 287] |  | < 0.5 µM | < 0.5 µM |  |  | bb (inhibition of from 25% to 75%) | 25 to 75% | < 25% | < 25% | 
8 | O=C(NCc1noc(-c2c[nH]c3ncccc23)n1)c1cccn(Cc2ccc(Cl)c(F)c2)c1=O [Cpd 304] |  | < 0.5 µM | < 0.5 µM | 1 to 5 µM |  | bbb (inhibition of more than 75%) | > 75% | < 25% | > 75% | 
9 | NC(=O)C[C@@H](NC(=O)c1cccn(Cc2ccc(F)c(F)c2)c1=O)c1ncc(-c2c[nH]c3ncccc23)o1 [Cpd 306] |  | < 0.5 µM | < 0.5 µM |  |  | bbb (inhibition of more than 75%) | > 75% | < 25% | 25 to 75% | 
10 | CN(C)C(=O)C[C@@H](NC(=O)c1cccn(Cc2ccc(F)c(F)c2)c1=O)c1nnc(-c2c[nH]c3ncccc23)o1 [Cpd 290] |  | 0.5 to 10 µM | < 0.5 µM |  |  | bb (inhibition of from 25% to 75%) | 25 to 75% | < 25% | 25 to 75% | 
11 | O=C(NCc1ccc(-c2c[nH]c3nccnc23)s1)c1cccn(Cc2ccc(F)c(F)c2)c1=O [Cpd 14] |  | < 0.5 µM | < 0.5 µM |  |  | bb (inhibition of from 25% to 75%) |  | 25 to 75% | 25 to 75% | 25 to 75%
12 | CNC(=O)C[C@@H](NC(=O)c1cccn(Cc2ccc(F)c(F)c2)c1=O)c1ncc(-c2c[nH]c3ncccc23)s1 [Cpd 137] |  | < 0.5 µM | < 0.5 µM | > 5 µM |  | bbb (inhibition of more than 75%) | > 75% | < 25% | > 75% | 
13 | O=C(NC1CCCc2ccc(-c3c[nH]c4ncccc34)cc21)c1cccn(Cc2ccc(F)c(F)c2)c1=O (stereo not drawn) [Cpd 16] |  | < 0.5 µM | < 0.5 µM | > 5 µM | > 5 µM | bb (inhibition of from 25% to 75%) |  |  |  | < 25%
14 | O=C(NCc1noc(-c2c[nH]c3ncccc23)n1)c1cc(Cl)cn(Cc2ccc(Cl)cc2)c1=O [Cpd 309] |  | < 0.5 µM | < 0.5 µM | 1 to 5 µM |  | bb (inhibition of from 25% to 75%) | 25 to 75% | 25 to 75% | > 75% | 
